In publication PMC9551036, “A selective and orally bioavailable VHL-recruiting PROTAC achieves SMARCA2 degradation in vivo” (Nature Communications, 2022):
Where “and” joins values, the source holds several entries; their conditions need not be identical. Equal entries are not always repeated.

How the values were obtained:
SMARCA2 = SMARCA2 (Homo sapiens, UniProt P51531); test: SMARCA2 capillary electrophoresis protein assay in RKO cells; type: cell-based; set-up: endogenous in cells; host or cells: RKO, NCI-H1568, A549, HCT116, LU99, HCC-364, HCT-15, HCC4006, SK-N-AS; details: for DC50 / SMARCA2 Dmax / Dmax: mean ± SD; for Dmax: RKO
Method: 130,000–200,000 cells were seeded in 24-well plates and incubated until settled down or overnight. Compounds were dissolved in DMSO and added to cells in indicated concentrations using a digital dispenser following an optional media change. […] For SMARCA2/4 half-life determination, 150,000 or 200,000 cells were seeded in 24-well plates. […] For SMARCA2/4 re-synthesis measurements, 200,000 cells were seeded in 24-well plates. […] Medium was removed, cells were washed with PBS and lysed with 80 µl Lysis Buffer (MSD Tris Lysis Buffer (#R60TX-2) + Halt Inhibitor Cocktail (100x) + Benzonase 0.5 µL/ml). Samples were frozen at −80 °C and thawed at room temperature before use. Samples were transferred to a V-bottom plate and insoluble debris was pelleted by centrifugation for 5 min at maximum speed. The supernatant was transferred to a fresh plate. Master Mix and Ladder were prepared according to manufacturer’s instructions for 12–230 kDa Wes Separation Module, 8 × 25 capillary cartridges, Protein Simple #SM-W004 with Anti-Rabbit Detection Module for Wes, Peggy Sue or Sally Sue, Protein Simple #DM-001. 4.8 µl lysate were mixed with 1.2 µl Master Mix to achieve a protein concentration of ~0.5 µg/µl. […] Wes plates were prepared and run according to manufacturer’s instructions. Proteins were quantified with accompanying Compass Software. SMARCA2/4 protein levels were normalised to GAPDH. […] Where applicable, curves were fitted using a 4-parametric logistic model.

SMARCA4^BD = biological target: T1, SMARCA4^BD (Homo sapiens, UniProt P51532); test: SPR binding to immobilised SMARCA4 bromodomain
T1 construct: P51532, residues 1448–1569 with additional N-terminal SM residues; GST (TEV site) (N, cleaved yes); made in house; host or cells: Escherichia coli BL21(DE3); construct from SGC Toronto
Method: SMARCA4^BD was provided by the Structural Genomics Consortium (SGC), Toronto[32] and SMARCA2^BD and PRM1^BD5 were synthesised by GeneArt then subcloned into pDEST15 vectors (Invitrogen). The VCB complex was expressed and purified as described previously, with the modification that 0.3 mM IPTG was used for induction of expression. […] Both were stored in 20 mM 4-(2-hydroxyethyl)−1-piperazineethanesulfonic acid (HEPES), 150 mM sodium chloride and 1 mM tris(2-carboxyethyl)phosphine (TCEP) pH 7.5. SMARCA2^BD, SMARCA4^BD and PBRM1^BD5 were expressed in Escherichia coli BL21(DE3) as N-terminal GST fusion proteins with a TEV protease cleavage site. Expression and purification of these proteins has been described previously[32],[33]. Starter cultures were grown overnight at 37 °C in 10 mL of Luria-Bertani (LB) medium with ampicillin (100 μg/mL). The starter cultures were diluted (1:100) in Terrific Broth (TB) medium with ampicillin (100 μg/mL) and grown in a shaking incubator at 37 °C to an optical density (OD600) ~1 before the temperature was lowered for induction (to 23 °C for SMARCA2^BD or 18 °C for SMARCA4^BD and PRRM1^BD5). […] Cells were harvested by centrifugation and stored at −80 °C prior to purification. Cells were resuspended in Lysis buffer and lysed by sonication (20 pulses of 5 s for 4 min) using a Sonopuls HD 3080 (Bandelin, Berlin, Germany) or by homogenisation using a Stansted Pressure Cell Homogeniser (Stansted Fluid Power). The Lysis buffers were as follows: for SMARCA2^BD: 50 mM HEPES, 500 mM sodium chloride, 5% glycerol, 5 mM dithiothreitol (DTT); for SMARCA4^BD: 25 mM HEPES, 0.3 M sodium chloride, 5% glycerol, 10 mM DTT, pH 7.5; for PBRM1^BD5: 25 mM HEPES, 300 mM sodium chloride, 5% glycerol, 10 mM DTT, pH 7.8; in each case supplemented with complete protease inhibitors (Roche). Affinity purification was performed using Glutathione Sepharose 4B (GE Healthcare) in batch mode or on-column. […] For SMARCA2^BD, prior to TEV protease cleavage the eluted GST-tagged BD was first dialysed into desalting buffer (20 mM HEPES, 250 mM sodium chloride, pH 7.0 + 0.5% glycerol). Where TEV cleavage was performed in solution, a second affinity (GST-trap) column purification step was carried out to remove the GST-tag and uncleaved GST-tagged protein. Proteins were further purified by SEC (HiLoad Superdex-75, 16/600) (GE Healthcare) and stored in Storage buffer (for SMARCA2^BD: 20 mM HEPES, 150 mM sodium chloride, pH 7.5; for SMARCA4^BD: 10 mM HEPES, 0.5 M NaCl, 5% glycerol, pH 7.5; for PBRM1^BD5: 20 mM HEPES, 300 mM NaCl, 5 mM DTT, pH 7.8). For AlphaScreen assays, eluted GST-tagged BDs were purified directly by SEC in the respective storage buffers without TEV cleavage. All chromatography purification steps were performed either at room temperature or 4 °C using an ÄKTA FPLC purification system (GE Healthcare) or a plastic Econo-Pac column (Bio-Rad).
SPR data were acquired on Biacore 8K or T200 instruments (Cytiva). Target proteins were immobilised at 25 °C on CM5 chips by amine coupling (EDC/NHS, Cytiva) in HBS-P+ running buffer (pH 7.4), containing 2 mM TCEP. After surface activation with EDC/NHS (contact time 420 s, flow rate 10 µl/min) SMARCA2^BD and SMARCA4^BD at 0.01–0.05 mg/ml in coupling buffer (10 mM Na-Acetate pH 6.5, 0.005% TWEEN 20 and 50 µM PFI-3[13]) were immobilised to a density of 100–5000 Response Units (RU). The reference surface was subsequently deactivated using 1 M ethanolamine. For VCB immobilisation, streptavidin (Sigma Aldrich, prepared at 1 mg/ml in 10 mM sodium acetate coupling buffer, pH 5.0) was immobilised by amine coupling to a density of 3000–5000 RU after which biotinylated VCB complex (0.125 mM in running buffer) was streptavidin-coupled to a density of 100–500 RU. Biotinylated VCB was prepared as previously described[27]: in brief, the complex was mixed 1:1 with EZ-Link NHS–PEG4–biotin (Thermo Scientific) and incubated at room temperature for 1 h.

Chain of SMARCA2 (P51531 whole entry): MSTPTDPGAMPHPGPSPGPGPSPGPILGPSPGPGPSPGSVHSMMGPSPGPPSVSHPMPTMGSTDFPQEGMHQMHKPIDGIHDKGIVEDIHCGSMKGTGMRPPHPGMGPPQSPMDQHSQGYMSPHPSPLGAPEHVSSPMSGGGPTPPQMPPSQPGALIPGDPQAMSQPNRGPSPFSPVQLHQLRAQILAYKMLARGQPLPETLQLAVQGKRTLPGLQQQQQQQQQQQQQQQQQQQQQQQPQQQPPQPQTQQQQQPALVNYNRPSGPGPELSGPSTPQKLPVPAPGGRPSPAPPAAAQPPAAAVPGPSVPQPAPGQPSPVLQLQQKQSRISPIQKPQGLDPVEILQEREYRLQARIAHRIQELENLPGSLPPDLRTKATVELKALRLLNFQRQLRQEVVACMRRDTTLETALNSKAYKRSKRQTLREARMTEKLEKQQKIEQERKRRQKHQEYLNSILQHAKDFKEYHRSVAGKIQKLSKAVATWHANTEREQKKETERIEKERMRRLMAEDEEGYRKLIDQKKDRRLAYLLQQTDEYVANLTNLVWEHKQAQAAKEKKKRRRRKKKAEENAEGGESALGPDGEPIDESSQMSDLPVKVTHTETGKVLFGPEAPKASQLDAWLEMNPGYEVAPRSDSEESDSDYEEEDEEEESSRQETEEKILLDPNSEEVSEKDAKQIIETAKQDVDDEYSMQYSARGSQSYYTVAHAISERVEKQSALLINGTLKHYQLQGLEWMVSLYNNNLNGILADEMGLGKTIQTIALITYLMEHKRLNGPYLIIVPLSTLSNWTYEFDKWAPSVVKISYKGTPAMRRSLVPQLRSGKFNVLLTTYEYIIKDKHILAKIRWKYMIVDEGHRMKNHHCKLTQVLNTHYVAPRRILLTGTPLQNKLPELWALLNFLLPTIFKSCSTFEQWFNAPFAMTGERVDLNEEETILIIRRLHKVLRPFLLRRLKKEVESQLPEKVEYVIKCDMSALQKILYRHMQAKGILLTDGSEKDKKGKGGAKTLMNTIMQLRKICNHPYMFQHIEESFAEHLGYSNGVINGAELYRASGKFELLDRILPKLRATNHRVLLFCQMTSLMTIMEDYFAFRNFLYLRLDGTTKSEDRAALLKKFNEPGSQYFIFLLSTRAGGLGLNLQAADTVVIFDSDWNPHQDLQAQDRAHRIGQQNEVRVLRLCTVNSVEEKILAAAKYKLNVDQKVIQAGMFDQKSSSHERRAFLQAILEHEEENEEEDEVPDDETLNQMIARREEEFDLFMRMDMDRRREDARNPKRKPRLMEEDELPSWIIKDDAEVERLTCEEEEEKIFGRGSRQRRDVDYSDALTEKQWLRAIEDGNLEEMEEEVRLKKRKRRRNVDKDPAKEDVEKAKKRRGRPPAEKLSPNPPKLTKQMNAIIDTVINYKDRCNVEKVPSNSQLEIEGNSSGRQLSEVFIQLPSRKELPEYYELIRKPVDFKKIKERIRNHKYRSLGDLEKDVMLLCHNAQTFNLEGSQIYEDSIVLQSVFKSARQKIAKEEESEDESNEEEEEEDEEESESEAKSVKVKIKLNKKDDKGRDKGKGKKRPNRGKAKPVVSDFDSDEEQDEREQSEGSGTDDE
T1 sequence (P51532 1448-1569): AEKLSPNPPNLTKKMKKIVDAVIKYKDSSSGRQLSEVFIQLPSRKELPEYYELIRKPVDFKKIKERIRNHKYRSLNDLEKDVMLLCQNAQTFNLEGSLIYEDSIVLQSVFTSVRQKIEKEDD

SMILES	DC50 (SMARCA2; RKO (4 h)) [nM]	DC50 (SMARCA2; RKO (18 h)) [nM]	SMARCA2 Dmax (SMARCA2; RKO (18 h)) [%]	Kd (SMARCA4^BD; SMARCA4BD, mean ± SD) [nM]	Kd (SMARCA4^BD; individual replicates)	SMARCA2 Dmax (SMARCA2; RKO (4 h)) [%]	Dmax (SMARCA2; RKO (4 h)) [%]	Dmax (SMARCA2; RKO (18 h)) [%]	selectivity for SMARCA2 over SMARCA4 degradation (SMARCA2; Supplementary Data 2)
Cc1ncsc1-c1ccc(CNC(=O)[C@@H]2C[C@@H](O)CN2C(=O)[C@@H](NC(=O)C2(F)CC2)C(C)(C)C)c(OCCCCN2CCC(c3ccc4c(c3)n(C3CCCC3)c3nc(=O)c5c(Br)cccc5n43)CC2)c1 [compound 23]	> 25000	39 ± 10	37 ± 5	169 ± 76	117 nM and 133 nM and 256 nM	–	–	–	–
CN1CCN(c2nc(=O)c3c(Br)cccc3o2)CC1 [compound 15]	> 25000	> 25000	–	12000 ± 902	12900 nM and 11900 nM and 11100 nM	–	–	–	–
Cc1ncsc1-c1ccc([C@H](COC(C)(C)CN2CCC(c3ccc4c(c3)n(C3CCCC3)c3nc(=O)c5c(Br)cccc5n43)CC2)NC(=O)[C@@H]2C[C@@H](O)CN2C(=O)[C@@H](NC(=O)C2(F)CC2)C(C)(C)C)cc1 [compound 28]	17 ± 8	5 ± 2	76 ± 11	278 ± 14	267 nM and 293 nM and 274 nM	69 ± 4	–	–	–
CN1CCC(c2ccc3c(c2)n(C2CCCC2)c2nc(=O)c4c(Br)cccc4n32)CC1 [compound 3]	> 25000	22300	–	58 ± 10	110 nM and 97.7 nM and 113 nM and 69.4 nM and 51 nM and 52.7 nM	–	–	–	–
Cc1ncsc1-c1ccc([C@H](COC(C)CN2CCC(c3ccc4c(c3)n(C3CCCC3)c3nc(=O)c5c(Br)cccc5n43)CC2)NC(=O)[C@@H]2C[C@@H](O)CN2C(=O)[C@@H](NC(=O)C2(F)CC2)C(C)(C)C)cc1 (stereo partly drawn) [compound 9]	12 ± 4	5 ± 1	–	505 ± 184	361 nM and 443 nM and 712 nM	–	72 ± 7	76 ± 10	remarkable selectivity
CN1CCN(c2nc(=O)c3c(I)cccc3o2)CC1 [compound 16]	> 25000	> 25000	–	22100 ± 1230	23100 nM and 20700 nM and 22400 nM	–	–	–	–
Cc1ncsc1-c1ccc([C@H](COC(C)CN2CCC(c3ccc4c(c3)n(C3CCCC3)c3nc(=O)c5c(Br)cccc5n43)CC2)NC(=O)[C@@H]2C[C@@H](O)CN2C(=O)[C@@H](NC(=O)C2(N(C)C)CC2)C(C)(C)C)cc1 (stereo partly drawn) [compound 10]	6 ± 3	3 ± 3	–	381 ± 28	359 nM and 413 nM and 372 nM	–	70 ± 2	82 ± 5	–
Cc1ncsc1-c1ccc([C@H](CCC(C)(C)CCN2CCC(c3ccc4c(c3)n(C3CCCC3)c3nc(=O)c5c(Br)cccc5n43)CC2)NC(=O)[C@@H]2C[C@@H](O)CN2C(=O)[C@@H](NC(=O)C2(F)CC2)C(C)(C)C)cc1 [compound 30]	8 ± 2	3 ± 1	82 ± 5	579 ± 89	492 nM and 575 nM and 669 nM	74 ± 5	–	–	–
Cc1ncsc1-c1ccc([C@H](COCCCN2CCC(c3ccc4c(c3)n(C3CCCC3)c3nc(=O)c5c(Br)cccc5n43)CC2)NC(=O)[C@@H]2C[C@@H](O)CN2C(=O)[C@@H](NC(=O)C2(F)CC2)C(C)(C)C)cc1 [compound 27]	5 ± 2	2 ± 1	85 ± 3	388 ± 96	308 nM and 361 nM and 494 nM	70 ± 7	–	–	–
